Earlier results as cited in US7250518B2, “Nicotinamide acids, amides, and their mimetics active as inhibitors of PDE4 isozymes” (Pfizer Inc., priority 2001, dated 2007).
Like-named read-outs stand apart in the source and are kept apart here.

Assays:
inflammatory parameters = conditions: topical, bilaterally over eight days, twenty patients
rheumatoid arthritis = conditions: 35 patients, t.i.d., placebo-controlled
[1] = tested on: antigen-induced bronchospasm; conditions: rat
canine tracheal PDE4 = conditions: at 100 nM
PDE4 in U937 cells = conditions: read-out: IC50 as PDE4 inhibitor in U937 cells
[2] = rat
[3] = rat; remark: listed apart in the source
[4] = 54 subjects, doses up to 400 mg
[5] = tested on: antigen-induced eosinophilia; conditions: rat
[6] = tested on: PHA stimulated atopic dermatitis PBMC; conditions: read-out: IC50, inhibition of PHA stimulated atopic dermatitis PBMC proliferation
[7] = tested on: PHA stimulated normal PBMC; conditions: read-out: IC50, inhibition of PHA stimulated normal PBMC proliferation
[8] = tested on: croton oil-induced ear inflammation; conditions: mouse
[9] = tested on: collagen II induced arthritis
[10] = tested on: human peripheral blood mononuclear cells (HPBM); conditions: normal patients and subjects with atopic dermatitis
[11] = tested on: dextran sulfate induced colitis; conditions: rat
[12] = tested on: lipopolysaccharide-induced bowel erythrocyte extravasation; conditions: rats, i.p. 3× pretreatment
[13] = tested on: T-cell mediated hepatic failure
[14] = tested on: experimental allergic encephalomyelitis; conditions: marmoset
[15] = tested on: chronic relapsing experimental allergic encephalomyelitis; conditions: SJL mice
[16] = COPD patients, 15 mg b.i.d., week 6
[17] = oral 5, 10, and 15 mg b.id., week 2
[18] = tested on: high-affinity rolipram binding site (Sr)
[19] = in vivo
[20] = tested on: histamine- and antigen-induced bronchoconstriction, eosinophilia, AHR; conditions: guinea-pig
[21] = tested on: seratonin-induced bronchoconstriction; conditions: dog
[22] = tested on: bronchoconstriction, BAL eosinophilia, AHR; conditions: in vivo
rhinorrhea = conditions: antigen-challenged pig
[23] = tested on: antigen-induced lung eosinophilia, BAL eosinophilia, AHR; conditions: guinea-pig
[24] = tested on: antigen-induced bronchoconstriction; conditions: guinea-pig
[25] = tested on: TNF release and lymphocyte proliferation; conditions: oral dose of 300 mg
[26] = tested on: late reactions to inhaled allergen; conditions: 9.5 days oral, 15 and 30 mg, bronchial asthma patients
TNF-α and IL-6 levels = conditions: 1 mg/kg/hr over 24 hours
[27] = tested on: in vitro guinea-pig models of asthma; conditions: read-out: IC50 in standard in vitro guinea-pig models of asthma
epidermal basal cells = conditions: primary culture
[28] = tested on: keratomed psoriatic epidermis; conditions: over controls
psoriatic lesions = conditions: two double-blind studies versus vehicle
guinea-pig lung PDE4 = conditions: read-out: IC50 against guinea-pig lung PDE4
TNF production = conditions: read-out: IC50 as an inhibitor of TNF production
[29] = tested on: lipopolysaccharide-induced mesenteric blood flow fall; conditions: inhibiting lipopolysaccharide-induced mesenteric blood flow fall
[30] = tested on: bone mineral density of femurs; conditions: serial oral administrations

## COc1ccc(C2CNC(=O)NC2)cc1O[C@H]1C[C@@H]2CC[C@H]1C2 [atizoram]
Inflammatory parameters
  Effect on inflammatory parameters: effectively inhibit all of the inflammatory parameters tested

## COc1ccc(C(=O)Nc2c(Cl)cncc2Cl)cc1OC1CCCC1 [RP73401]
Rheumatoid arthritis
  Clinical effect in rheumatoid arthritis: positive trend towards clinical improvement

## COc1ccc(CNc2c(C)noc2C)cc1OC1CCCC1 [RPR-132294]
[1]
  Inhibition of antigen-induced bronchospasm: activity

## COc1ccc(C(=O)Cc2c(Cl)c[n+]([O-])cc2Cl)c2c1OCCCCO2 [Formula (0.0.49)]
Canine tracheal PDE4
  Inhibition of canine tracheal PDE4: almost complete inhibition

## Cc1cc2c3c(c1)C(c1ccccc1)=N[C@@H](NC(=O)c1ccncc1)C(=O)N3CC2 [CI-1018]
PDE4 in U937 cells
  IC50: 1100 nM
[2]
  Oral bioavailability: 57%
[3]
  ED50, oral potency: 5 mg/kg
[4]
  Adverse events: no adverse events
[5]
  Inhibition of antigen-induced eosinophilia: active

## COc1ccc(C2CNC(=O)C2)cc1OC1CCCC1 (centres unmarked) [rolipram]
[6]
  IC50: 280 nM
[7]
  IC50: 2600 nM
[8]
  Topical dose inhibiting croton oil-induced ear inflammation: ≥ 0.03 mg per ear
[9]; 2 mg/kg twice daily for five days before onset of arthritis
  Effect on appearance of arthritic symptoms: significantly delayed the appearance of arthritic symptoms
[9]; 3 mg/kg twice daily when arthritis was apparent
  Effect on development of the disease: progression of severity was halted
[10]
  Inhibition of the proliferation of HPBM: concentration-related inhibition
[11]
  Effect in dextran sulfate induced colitis: beneficial effects comparable to prednisolone
[12]
  Effect on lipopolysaccharide-induced bowel erythrocyte extravasation: reduces
[13]; 0.1 to 10 mg/kg i.p.
  IL-10 levels: significantly elevates
  Plasma activities of liver enzymes ALT, AST, and SDH: dose-dependently inhibited
[13]; 0.1 to 10 mg/kg i.p. 30 minutes before concanavalin A or staphylococcal enterotoxin B
  Plasma TNF-α and INF-γ concentrations: significantly reduce
[14]
  Effect on clinical signs: suppress the appearance of clinical signs
[15]
  Effect on clinical signs and pathological changes: ameliorates clinical signs and pathological changes

## COc1ccc([C@]2(C#N)CC[C@@H](C(=O)O)CC2)cc1OC1CCCC1 [SB-207,499]
[16]
  Improvement in trough FEV1: 11%
  Maximum mean difference in trough FEV1 compared with placebo: 160 mL
[17]
  Change in trough FEV1 from placebo: significant increases
[18]
  Affinity at the Sr: comparatively low affinity

## Nc1nc2c([nH]1)c(=O)n(CC1CC1)c(=O)n2CC1CC1 [BRL-61,063]
[19]
  Emesis, nausea and vomiting: adverse events of nausea and vomiting

## O=C(Nc1c(Cl)cncc1Cl)C(=O)c1cn(Cc2ccc(F)cc2)c2ccc(O)cc12 [AWD-12,281]
Allergic rhinitis
  Activity in a rat model of allergic rhinitis: active

## O=c1c2c(ncn2Cc2cccnc2)c2cccnc2n1-c1ccccc1 [KF19514]
[20]
  Inhibition of histamine- and antigen-induced bronchoconstriction, PAF- and antigen-induced eosinophilia, AHR, bronchospasm: activity

## COc1ccc(/C(C)=N/OC(N)=O)cc1OC1CCCC1 [WAY-PDA-641]
[21]
  Inhibition of seratonin-induced bronchoconstriction: active

## CCOc1cc2cc(CO)c(CO)c(-c3ccn(CCOC)c(=O)c3)c2cc1OCC [Example T-440]
[22]
  Inhibition of early and late phase bronchoconstriction, BAL eosinophilia, ozone-induced AHR and airway epithelial injury: activity

## CCCn1c(=O)c2c(C)nc(CC)n2c2nc(OC)ccc21 [Example D-22888]
rhinorrhea
  Effect on rhinorrhea: inhibit rhinorrhea

## COc1ccc(C2CNC(=O)NC2)cc1O[C@H]1C[C@@H]2CC[C@H]1C2 [CP-80,633]
[19]
  Emesis, nausea and vomiting: elicit emesis
[18]
  Affinity at the Sr: high affinity

## CCCn1c(=O)c2[nH]cnc2n(-c2ccc(Cl)cc2)c1=O [LAS31025]
[11]
  Effect in dextran sulfate induced colitis: beneficial effects comparable to prednisolone

## COc1ccc(C(=O)Nc2c(Cl)cncc2Cl)cc1OC1CCCC1 [RP-73,401]
[23]
  Inhibition of antigen-induced lung and BAL eosinophilia, EPO, PAF- and ozone-induced AHR, IL-5 induced pleural eosinophila: active
[19]
  Emesis, nausea and vomiting: elicit emesis
[18]
  Affinity at the Sr: high affinity

## CCNc1ncn(Cc2ccc(OC)c(OC3CCCC3)c2)c2nc(C(C)C)nc1-2 [Example V-11294A]
[24]
  Inhibition of antigen-induced bronchoconstriction: active
[25]
  Effect on LPS-stimulated ex vivo TNF release and PHA induced lymphocyte proliferation: effective in reducing TNF levels and lymphocyte proliferation

## COc1ccc([C@H](Cc2ccncc2)c2ccccc2)cc1OC1CCCC1 [CDP840]
[26]
  Effect on late reactions to inhaled allergen: suppression of late reactions to inhaled allergen
[19]
  Emesis, nausea and vomiting: without any adverse events of nausea or headache
[18]
  Affinity at the Sr: comparatively low affinity

## CC(=O)CCCCn1c(=O)c2c(ncn2C)n(C)c1=O [pentoxifylline]
TNF-α and IL-6 levels
  IL-6 levels: significantly increased
  TNF-α levels: significantly lowered
[12]
  Effect on lipopolysaccharide-induced bowel erythrocyte extravasation: reduces

## O=c1c2[nH]cnc2c2cccnc2n1-c1ccccc1 [KF17625]
[20]
  Inhibition of histamine- and antigen-induced bronchoconstriction, PAF- and antigen-induced eosinophilia, AHR, bronchospasm: activity

## O=C(Nc1c(Cl)cncc1Cl)c1ccc(OC(F)F)c(OCC2CC2)c1 [Roflumilast]
[27]
  IC50: 3.5 nM

## CCCCn1c(=O)c2c(ncn2CC(C)=O)n(CCCC)c1=O [debufylline]
[12]
  Effect on lipopolysaccharide-induced bowel erythrocyte extravasation: reduces

## CCCn1c(=O)c2[nH]cnc2n(-c2ccc(Cl)cc2)c1=O [LAS-31025]
[24]
  Inhibition of antigen-induced bronchoconstriction: active

## COc1ccc(CC2CNC(=O)N2)cc1OC1CCCC1 (centres unmarked) [Ro 20-1724]
Epidermal basal cells
  Increase in cAMP concentrations: three-fold
[28]
  Increase in cAMP concentration: 1395%
Psoriatic lesions
  Effect on psoriatic lesions: improve psoriatic lesions without adverse systemic or cutaneous effects

## O=c1c2cccnc2n(-c2cccc([N+](=O)[O-])c2)c(=O)n1Cc1ccncc1 [RS-23,544]
[19]
  Emesis, nausea and vomiting: elicit emesis
[18]
  Affinity at the Sr: high affinity

## CCOc1cc2cc(CO)c(CO)c(-c3ccnc(-n4nc(-c5cccnc5)c5ccccc5c4=O)c3)c2cc1OCC [Example T-2585]
guinea-pig lung PDE4
  IC50: 0.13 nM

## COc1ccc(C(CC(N)=O)N2C(=O)c3ccccc3C2=O)cc1OC1CCCC1 (centres unmarked) [Formula (0.0.32)]
PDE4; read-out: IC50 as an inhibitor of PDE4
  IC50: 0.042 nM
TNF production
  IC50: 130 nM

## COc1ccc(-c2nc3cnccc3o2)c2c1OC1(CCCC1)C2 [Formula (0.0.48)]
PDE4; read-out: IC50 as PDE4 inhibitor
  IC50: 2.5 nM

## CCCCn1c(=O)c2c(ncn2CC(C)=O)n(CCCC)c1=O [denbufylline]
[29]
  Potency relative to pentoxifylline: 100 fold
[10]
  Inhibition of the proliferation of HPBM: concentration-related inhibition
[30]
  Effect on bone mineral density of femurs: inhibit the decrease in the bone mineral density
